Assay results from patent US11596145B2, “Anti-freezing agent for protecting biological tissue during freezing treatment and preparation method therefor” (TAIPEI VETERANS GENERAL HOSPITAL, priority 2016, dated 2023).

Key:
human cartilage tissue [1] = assay: Protection of human cartilage tissue during liquid nitrogen freezing (HE stain, separation of cartilage from hard bone); details: applied to articular cartilage, liquid nitrogen 20 minutes, warmed to room temperature 20 minutes
Description: Unneeded normal cartilage tissues (residual specimens) taken from the human body during surgery were divided into three groups and treated separately: control group A was not treated; for control group B, traditional commercially available anti-freezing agent was applied to articular cartilage; and for experimental group C, the anti-freezing agent of the present invention was applied to the articular cartilage. The control and experimental groups were separately placed in liquid nitrogen to freeze for 20 minutes, slowly warmed to room temperature for 20 minutes, fixed with 4% paraformaldehyde, pathologically sectioned, and then stained by hematoxylin-eosin. […] The size of separation was 2.16 mm in the control group A, 1.2 mm in the control group B, and 0.45 mm in the experimental group. It was shown that the anti-freezing agent of the present invention can protect cartilage tissue and reduce the separation of cartilage and hard bone caused by freezing.

human cartilage tissue [2] = assay: Change of cartilage color index (luminance level of cartilage surface) after freezing; details: applied to articular cartilage; liquid nitrogen 20 minutes, warmed to room temperature 20 minutes
Description: Unneeded normal cartilage tissues (residual specimens) taken from the human body during surgery were divided into three groups and treated separately: control group A was not treated; for control group B, traditional commercially available anti-freezing agent was applied to articular cartilage; and for experimental group C, the anti-freezing agent of the present invention was applied to the articular cartilage. The control and experimental groups were separately placed in liquid nitrogen to freeze for 20 minutes, and then slowly warmed to room temperature for 20 minutes. The color index change of the cartilage surface was observed by analyzing the decrease of luminance level of the cartilage surface.

rat knee cartilage = assay: Protective effect on rat knee cartilage during liquid nitrogen freezing (HE stain of pathological sections); details: coated at articular cartilage; liquid nitrogen 20 minutes, warmed to room temperature 20 minutes
Protocol: The rat knee cartilage was taken out. The control group A was not treated, and the control group B was coated with a conventional commercially available anti-freezing agent (dimethyl sulfoxide) at the articular cartilage. The experimental groups were coated with the anti-freezing agent of the present invention at the articular cartilage, separately placed in liquid nitrogen for 20 minutes, slowly warmed to room temperature for 20 minutes, fixed with 4% paraformaldehyde, pathologically sectioned, and then stained with hematoxylin-eosin (HE stain). The pathological sections of hematoxylin-eosin stained control group (A), control group (B), and experimental group (C). are shown in FIG. 2. After freezing, in the control group A the cartilage surface became brittle and uneven (as indicated by the arrow), and the control group B was also uneven (as indicated by the arrow).

Q: Which results are given for `C[S+](C)[O-]` [dimethyl sulfoxide]?
A: separation at the intersection of the cartilage bottom and the hard bone after freezing (human cartilage tissue [1]; HE stain): separation (the stellate) also occurred; size of separation (human cartilage tissue [1]; untreated control 2.16 mm): 1.2 mm; decrease of luminance level of the cartilage surface after freezing (human cartilage tissue [2]): significantly decreased; cartilage surface after freezing (hematoxylin-eosin stained section) (rat knee cartilage): uneven
